Measured values from US20250170090A1, “METHOD FOR PREVENTING OR TREATING DISEASE OR DISORDER ASSOCIATED WITH ANTINEOPLASTIC AGENT” (ONQUALITY PHARMACEUTICALS CHINA LTD., priority 2022, published 2025).
Like-named read-outs stand apart in the source and are kept apart here.

How the values were obtained:
[1] = system: HUVEC cells; experiment: CCK-8 cell viability: alleviation of proliferative toxicity of anti-tumor agents on HUVEC cells (Tables 7-1, 7-2); type: cell-based; details: for activation at 100 µM: Homo sapiens, 24 h, percentage increase in viable cells vs anti-tumor agent alone, read-out: Response rate % (average)
Outline: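 Viability was measured by CCK-8 after 24-48 h of culture. Cells received anti-tumor agent in DMSO with or without co-added NO-NSAID (dissolved in ethanol or sterile water), and results were corrected against the matching NO-NSAID solvent control.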

[2] = system: hand-foot syndrome induced by anti-tumor agents; experiment: Prevention of hand-foot syndrome induced by anti-tumor agents in rats, NO-NSAID ointment on hind paws (Table 2-2); type: in vivo, SD rats; details: Rattus norvegicus, topical, read-out: Control rate; for responders at 0.5 %: ointment 0.50% wt; for responders at 1 %: ointment 1% wt; for responders at 2.5 %: ointment 2.50% wt; for responders at 5 %: ointment 5% wt
Outline: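 Female SD rats (8 weeks, ~200 g; 10/group) received anti-tumour agents by daily oral gavage in Cremophor EL:ethanol 1:1 diluted ~3× with PBS. NO-NSAID or blank ointment was applied to hind paws once daily, 4 h restrained, then wiped off. Control rate = blank-group minus treated-group hand-foot syndrome incidence.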

[3] = Afatinib (10 μM), NO-NSAID 100 μM
[4] = Cabozantinib (5 μM), NO-NSAID 100 μM
[5] = Dabrafenib (10 μM), NO-NSAID 100 μM
[6] = Everolimus (5 μM), NO-NSAID 100 μM
[7] = Infigratinib (15 μM), NO-NSAID 100 μM
[8] = Lapatinib (5 μM), NO-NSAID 100 μM
[9] = Lenvatinib (10 μM), NO-NSAID 100 μM
[10] = Olmutinib (10 μM), NO-NSAID 100 μM
[11] = Regorafenib (5 μM), NO-NSAID 100 μM
[12] = Selumetinib (5 μM), NO-NSAID 100 μM
[13] = Sorafenib (5 μM), NO-NSAID 100 μM
[14] = Sunitinib (5 μM), NO-NSAID 100 μM
[15] = 120 h, Sorafenib 80 mg/kg once a day, Days 5
[16] = 432 h, Cabozantinib 50 mg/kg once a day, Days 18
[17] = 432 h, Lenvatinib 100 mg/kg twice a day, Days 18
[18] = 432 h, Nintedanib 110 mg/kg once a day, Days 18
[19] = 432 h, Regorafenib 90 mg/kg once a day, Days 18

CC(C(=O)OCCCO[N+](=O)[O-])c1ccc(-c2ccccc2)c(F)c1 (stereo not drawn) [Compound A1]
NO-NSAID response rate % (average) ([1]; Afatinib (10 μM), NO-NSAID 0.1 μM): 13% | NO-NSAID response rate % (average) ([1]; Afatinib (10 μM), NO-NSAID 1 μM): 20% | NO-NSAID response rate % (average) [1, 3]: 50% | NO-NSAID response rate % (average) ([1]; Afatinib (10 μM), NO-NSAID 500 μM): 25% | NO-NSAID response rate % (average) ([1]; Cabozantinib (5 μM), NO-NSAID 0.1 μM): 10% | NO-NSAID response rate % (average) ([1]; Cabozantinib (5 μM), NO-NSAID 1 μM): 10% | NO-NSAID response rate % (average) [1, 4]: 4% | NO-NSAID response rate % (average) ([1]; Cabozantinib (5 μM), NO-NSAID 500 μM): 15% | NO-NSAID response rate % (average) ([1]; Dabrafenib (10 μM), NO-NSAID 0.1 μM): 22% | NO-NSAID response rate % (average) ([1]; Dabrafenib (10 μM), NO-NSAID 1 μM): 48% | NO-NSAID response rate % (average) [1, 5]: 53% | NO-NSAID response rate % (average) ([1]; Dabrafenib (10 μM), NO-NSAID 500 μM): 37% | NO-NSAID response rate % (average) ([1]; Everolimus (5 μM), NO-NSAID 0.1 μM): 4% | NO-NSAID response rate % (average) ([1]; Everolimus (5 μM), NO-NSAID 1 μM): −2% | NO-NSAID response rate % (average) [1, 6]: 62% | NO-NSAID response rate % (average) ([1]; Everolimus (5 μM), NO-NSAID 500 μM): 20% | activation at 100 µM [1, 3]: 50% | activation at 100 µM ([1]; Anlotinib (5 μM), NO-NSAID 100 μM): 16% | activation at 100 µM ([1]; Apatinib (10 μM), NO-NSAID 100 μM): 43% | activation at 100 µM ([1]; Axitinib (10 μM), NO-NSAID 100 μM): 65% | activation at 100 µM [1, 4]: 4% | activation at 100 µM [1, 5]: 53% | activation at 100 µM ([1]; Dacomitinib (5 μM), NO-NSAID 100 μM): 59% | activation at 100 µM ([1]; Encorafenib (5 μM), NO-NSAID 100 μM): 65% | activation at 100 µM ([1]; Erdafitinib (10 μM), NO-NSAID 100 μM): 51% | activation at 100 µM [1, 6]: 62% | activation at 100 µM ([1]; Famitinib (5 μM), NO-NSAID 100 μM): 70% | activation at 100 µM ([1]; Fruquintinib (10 μM), NO-NSAID 100 μM): 23% | activation at 100 µM ([1]; Gefitinib (10 μM), NO-NSAID 100 μM): 30% | activation at 100 µM [1, 7]: 80% | activation at 100 µM [1, 8]: 27% | activation at 100 µM [1, 9]: 28% | activation at 100 µM [1, 10]: 37% | activation at 100 µM [1, 11]: 64% | activation at 100 µM [1, 12]: 51% | activation at 100 µM [1, 13]: 51% | activation at 100 µM [1, 14]: 11% | activation at 100 µM ([1]; Vemurafenib (5 μM), NO-NSAID 100 μM): 45% | NO-NSAID response rate % (average) ([1]; Infigratinib (15 μM), NO-NSAID 0.1 μM): 23% | NO-NSAID response rate % (average) ([1]; Infigratinib (15 μM), NO-NSAID 1 μM): 14% | NO-NSAID response rate % (average) [1, 7]: 80% | NO-NSAID response rate % (average) ([1]; Infigratinib (15 μM), NO-NSAID 500 μM): 25% | NO-NSAID response rate % (average) ([1]; Lapatinib (5 μM), NO-NSAID 0.1 μM): 27% | NO-NSAID response rate % (average) ([1]; Lapatinib (5 μM), NO-NSAID 1 μM): 23% | NO-NSAID response rate % (average) [1, 8]: 27% | NO-NSAID response rate % (average) ([1]; Lapatinib (5 μM), NO-NSAID 500 μM): 24% | NO-NSAID response rate % (average) ([1]; Lenvatinib (10 μM), NO-NSAID 0.1 μM): 21% | NO-NSAID response rate % (average) ([1]; Lenvatinib (10 μM), NO-NSAID 1 μM): 13% | NO-NSAID response rate % (average) [1, 9]: 28% | NO-NSAID response rate % (average) ([1]; Lenvatinib (10 μM), NO-NSAID 500 μM): 10% | NO-NSAID response rate % (average) ([1]; Olmutinib (10 μM), NO-NSAID 0.1 μM): 25% | NO-NSAID response rate % (average) ([1]; Olmutinib (10 μM), NO-NSAID 1 μM): 20% | NO-NSAID response rate % (average) [1, 10]: 37% | NO-NSAID response rate % (average) ([1]; Olmutinib (10 μM), NO-NSAID 500 μM): 31% | NO-NSAID response rate % (average) ([1]; Regorafenib (5 μM), NO-NSAID 0.1 μM): 21% | NO-NSAID response rate % (average) ([1]; Regorafenib (5 μM), NO-NSAID 1 μM): 27% | NO-NSAID response rate % (average) [1, 11]: 64% | NO-NSAID response rate % (average) ([1]; Regorafenib (5 μM), NO-NSAID 500 μM): 42% | NO-NSAID response rate % (average) ([1]; Selumetinib (5 μM), NO-NSAID 0.1 μM): 36% | NO-NSAID response rate % (average) ([1]; Selumetinib (5 μM), NO-NSAID 1 μM): 28% | NO-NSAID response rate % (average) [1, 12]: 51% | NO-NSAID response rate % (average) ([1]; Selumetinib (5 μM), NO-NSAID 500 μM): 25% | NO-NSAID response rate % (average) ([1]; Sorafenib (5 μM), NO-NSAID 0.1 μM): 1% | NO-NSAID response rate % (average) ([1]; Sorafenib (5 μM), NO-NSAID 1 μM): 14% | NO-NSAID response rate % (average) [1, 13]: 51% | NO-NSAID response rate % (average) ([1]; Sorafenib (5 μM), NO-NSAID 500 μM): 8% | NO-NSAID response rate % (average) ([1]; Sunitinib (5 μM), NO-NSAID 0.1 μM): 19% | NO-NSAID response rate % (average) ([1]; Sunitinib (5 μM), NO-NSAID 1 μM): 5% | NO-NSAID response rate % (average) [1, 14]: 11% | NO-NSAID response rate % (average) ([1]; Sunitinib (5 μM), NO-NSAID 500 μM): 29% | responders at 0.5 % [2, 15]: 42.9% | responders at 1 % [2, 15]: 42.9% | responders at 2.5 % [2, 15]: 60% | responders at 5 % [2, 15]: 83.3% | responders at 2.5 % ([2]; 360 h, Apatinib 105 mg/kg once a day, Days 15): 57.1% | responders at 2.5 % ([2]; 360 h, Encorafenib 80 mg/kg once a day, Days 15): 60% | responders at 2.5 % ([2]; 360 h, Lapatinib 120 mg/kg twice a day, Days 15): 33.3% | responders at 2.5 % ([2]; 360 h, Sunitinib 120 mg/kg once a day, Days 15): 57.1% | responders at 2.5 % ([2]; 384 h, Fruquintinib 40 mg/kg once a day, Days 16): 57.1% | responders at 2.5 % ([2]; 432 h, Anlotinib 20 mg/kg once a day, Days 18): 33.3% | responders at 2.5 % ([2]; 432 h, Axitinib 50 mg/kg once a day, Days 18): 60% | responders at 1 % [2, 16]: 40% | responders at 2.5 % [2, 16]: 33.3% | responders at 5 % [2, 16]: 66.7% | responders at 1 % [2, 17]: 28.6% | responders at 2.5 % [2, 17]: 57.1% | responders at 5 % [2, 17]: 57.1% | responders at 1 % [2, 18]: 33.3% | responders at 2.5 % [2, 18]: 66.7% | responders at 5 % [2, 18]: 66.7% | responders at 0.5 % [2, 19]: 33.3% | responders at 1 % [2, 19]: 50% | responders at 2.5 % [2, 19]: 42.9% | responders at 5 % [2, 19]: 80% | responders at 2.5 % ([2]; 480 h, Erdafitinib 45 mg/kg once a day, Days 20): 42.9% | responders at 2.5 % ([2]; 480 h, Olmutinib 100 mg/kg once a day, Days 20): 50%
